Series [1] deals with Phosphatidylinositol 4-kinase type 2-alpha (Homo sapiens) (UniProt Q9BTU6). Briefly: Selectivity interaction (Adapta Assay) EUB0001632a PI4K2A. The following applies: at 10 µM.
The target of series [2] is T1, Dual specificity protein kinase TTK (Homo sapiens) (UniProt P33981).
T1 sequence (whole entry): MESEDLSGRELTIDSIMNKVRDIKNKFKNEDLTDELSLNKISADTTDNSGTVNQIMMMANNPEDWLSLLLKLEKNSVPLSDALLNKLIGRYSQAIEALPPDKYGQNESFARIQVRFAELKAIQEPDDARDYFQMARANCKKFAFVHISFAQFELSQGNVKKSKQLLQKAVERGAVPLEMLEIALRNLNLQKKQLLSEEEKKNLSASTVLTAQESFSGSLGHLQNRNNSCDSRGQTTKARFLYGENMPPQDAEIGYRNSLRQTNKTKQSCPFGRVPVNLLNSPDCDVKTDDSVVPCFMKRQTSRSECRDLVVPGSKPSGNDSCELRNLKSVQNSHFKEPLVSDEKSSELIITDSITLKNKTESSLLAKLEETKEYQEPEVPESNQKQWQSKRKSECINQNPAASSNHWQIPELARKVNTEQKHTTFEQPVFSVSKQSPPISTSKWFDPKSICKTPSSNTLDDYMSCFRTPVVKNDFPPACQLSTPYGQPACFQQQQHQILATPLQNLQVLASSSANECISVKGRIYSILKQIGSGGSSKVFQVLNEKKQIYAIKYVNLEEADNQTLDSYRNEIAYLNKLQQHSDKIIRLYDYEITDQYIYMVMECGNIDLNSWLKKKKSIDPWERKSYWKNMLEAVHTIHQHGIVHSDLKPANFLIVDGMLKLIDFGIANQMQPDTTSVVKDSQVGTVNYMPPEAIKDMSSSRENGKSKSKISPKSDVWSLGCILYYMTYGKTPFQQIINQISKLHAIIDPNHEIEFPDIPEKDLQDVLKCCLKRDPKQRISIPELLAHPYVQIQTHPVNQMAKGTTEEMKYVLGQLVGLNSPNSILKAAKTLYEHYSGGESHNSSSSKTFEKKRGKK
Briefly: Selectivity interaction (Ambit KINOMEscan and KiNATiv profiling in Jurkat cells) EUB0000090b TTK. The format is cell-based. The following applies: at 1 µM.

In series [3] the target is Mitogen-activated protein kinase kinase kinase 10 (Homo sapiens) (UniProt Q02779). Briefly: Selectivity interaction (KinomeScan (DiscoverX)) EUB0000607a MAP3K10. The following applies: at 10 µM.
For series [4], the target named is Calcium/calmodulin-dependent protein kinase type 1 (Homo sapiens) (UniProt Q14012). Conditions: at 10 µM.
Sequence of Calcium/calmodulin-dependent protein kinase type 1 (Homo sapiens) (Q14012 whole entry, looked up): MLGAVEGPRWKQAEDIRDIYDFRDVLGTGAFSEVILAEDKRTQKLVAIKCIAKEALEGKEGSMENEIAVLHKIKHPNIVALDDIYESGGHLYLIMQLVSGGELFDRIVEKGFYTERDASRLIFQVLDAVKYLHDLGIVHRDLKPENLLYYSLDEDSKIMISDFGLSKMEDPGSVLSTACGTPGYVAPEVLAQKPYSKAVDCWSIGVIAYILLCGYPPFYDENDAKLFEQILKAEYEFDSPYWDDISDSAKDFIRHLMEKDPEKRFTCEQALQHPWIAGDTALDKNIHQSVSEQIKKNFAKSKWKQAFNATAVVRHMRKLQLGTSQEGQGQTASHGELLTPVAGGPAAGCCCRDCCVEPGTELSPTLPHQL
The nature of series [5]: Selectivity interaction (KinomeScan (DiscoverX)) EUB0000666a PKNB. The following applies: at 10 µM.
The target of series [6] is Mitogen-activated protein kinase kinase kinase 20 (Homo sapiens) (UniProt Q9NYL2). The experiment in a line: Selectivity interaction (KinomeScan (DiscoverX)) EUB0000666a MAP3K20. The following applies: at 10 µM.
Sequence of Mitogen-activated protein kinase kinase kinase 20 (Homo sapiens) (Q9NYL2 2-800 limits assumed): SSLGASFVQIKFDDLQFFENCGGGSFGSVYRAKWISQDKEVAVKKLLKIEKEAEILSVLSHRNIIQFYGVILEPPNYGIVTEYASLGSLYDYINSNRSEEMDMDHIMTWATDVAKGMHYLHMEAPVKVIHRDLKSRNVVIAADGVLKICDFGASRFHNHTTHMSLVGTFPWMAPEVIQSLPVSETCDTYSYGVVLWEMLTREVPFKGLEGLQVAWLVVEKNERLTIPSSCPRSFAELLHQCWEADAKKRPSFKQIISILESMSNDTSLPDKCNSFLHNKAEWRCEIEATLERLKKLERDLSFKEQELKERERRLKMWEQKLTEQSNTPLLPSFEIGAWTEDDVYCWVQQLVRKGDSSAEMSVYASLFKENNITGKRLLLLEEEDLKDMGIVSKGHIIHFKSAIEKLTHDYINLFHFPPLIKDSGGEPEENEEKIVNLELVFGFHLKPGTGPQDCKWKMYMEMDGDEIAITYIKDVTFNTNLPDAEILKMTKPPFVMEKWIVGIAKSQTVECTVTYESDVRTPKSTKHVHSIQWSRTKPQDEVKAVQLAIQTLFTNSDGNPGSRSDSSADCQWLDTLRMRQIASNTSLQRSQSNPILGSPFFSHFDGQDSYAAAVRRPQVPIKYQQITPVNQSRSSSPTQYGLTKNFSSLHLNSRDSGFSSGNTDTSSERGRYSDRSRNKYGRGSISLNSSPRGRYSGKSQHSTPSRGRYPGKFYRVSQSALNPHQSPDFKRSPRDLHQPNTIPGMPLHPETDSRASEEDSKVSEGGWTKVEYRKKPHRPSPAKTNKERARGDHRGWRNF
The target of series [7] is G protein-coupled receptor kinase 5 (Homo sapiens, UniProt P34947). Briefly: Selectivity interaction (Kinase panel (DSF assay)) EUB0001558a GRK5. (In general: In DSF a fluorescence change marks the thermal transition of the protein.)
Sequence of G protein-coupled receptor kinase 5 (P34947 whole entry, looked up): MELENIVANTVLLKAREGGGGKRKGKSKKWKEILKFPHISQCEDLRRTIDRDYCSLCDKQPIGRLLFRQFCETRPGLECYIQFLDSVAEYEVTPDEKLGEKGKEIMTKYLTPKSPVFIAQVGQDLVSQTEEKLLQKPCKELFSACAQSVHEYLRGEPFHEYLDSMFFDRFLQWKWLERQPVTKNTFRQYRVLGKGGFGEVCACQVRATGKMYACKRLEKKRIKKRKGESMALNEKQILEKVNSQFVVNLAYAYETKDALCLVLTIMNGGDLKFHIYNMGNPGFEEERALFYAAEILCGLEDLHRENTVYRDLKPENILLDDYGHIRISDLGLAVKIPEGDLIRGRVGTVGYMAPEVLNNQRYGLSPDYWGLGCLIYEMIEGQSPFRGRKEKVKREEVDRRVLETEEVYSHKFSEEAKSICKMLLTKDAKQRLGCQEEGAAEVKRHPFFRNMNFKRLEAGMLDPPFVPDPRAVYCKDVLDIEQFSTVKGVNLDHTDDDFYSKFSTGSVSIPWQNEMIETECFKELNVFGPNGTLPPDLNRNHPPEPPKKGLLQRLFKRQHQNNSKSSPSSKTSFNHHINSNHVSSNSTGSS
Series [8] deals with Serine/threonine-protein kinase 32A (Homo sapiens) (UniProt Q8WU08). Briefly: Selectivity interaction (KinomeScan (DiscoverX)) EUB0000229b STK32A. The following applies: at 10 µM.
Series [9] addresses L-type calcium channel Cav1.2 (CACNA1C) (Homo sapiens, UniProt Q13936). The experiment in a line: Selectivity interaction (Panel of kinases, GPCRs, ion channels and transporters (enzymatic assay)) EUB0000266bCl CACNA1C.
The target of series [10] is Phosphatidylinositol 4-kinase beta (Homo sapiens, UniProt Q9UBF8). Briefly: Selectivity interaction (ActivX KiNativ screen (kinase selectivity in THP-1 cell lysates)) EUB0000639a PI4KB. The format is subcellular. The following applies: lysate, at 0.01 µM.
Sequence of Phosphatidylinositol 4-kinase beta (Q9UBF8 2-816 limits assumed): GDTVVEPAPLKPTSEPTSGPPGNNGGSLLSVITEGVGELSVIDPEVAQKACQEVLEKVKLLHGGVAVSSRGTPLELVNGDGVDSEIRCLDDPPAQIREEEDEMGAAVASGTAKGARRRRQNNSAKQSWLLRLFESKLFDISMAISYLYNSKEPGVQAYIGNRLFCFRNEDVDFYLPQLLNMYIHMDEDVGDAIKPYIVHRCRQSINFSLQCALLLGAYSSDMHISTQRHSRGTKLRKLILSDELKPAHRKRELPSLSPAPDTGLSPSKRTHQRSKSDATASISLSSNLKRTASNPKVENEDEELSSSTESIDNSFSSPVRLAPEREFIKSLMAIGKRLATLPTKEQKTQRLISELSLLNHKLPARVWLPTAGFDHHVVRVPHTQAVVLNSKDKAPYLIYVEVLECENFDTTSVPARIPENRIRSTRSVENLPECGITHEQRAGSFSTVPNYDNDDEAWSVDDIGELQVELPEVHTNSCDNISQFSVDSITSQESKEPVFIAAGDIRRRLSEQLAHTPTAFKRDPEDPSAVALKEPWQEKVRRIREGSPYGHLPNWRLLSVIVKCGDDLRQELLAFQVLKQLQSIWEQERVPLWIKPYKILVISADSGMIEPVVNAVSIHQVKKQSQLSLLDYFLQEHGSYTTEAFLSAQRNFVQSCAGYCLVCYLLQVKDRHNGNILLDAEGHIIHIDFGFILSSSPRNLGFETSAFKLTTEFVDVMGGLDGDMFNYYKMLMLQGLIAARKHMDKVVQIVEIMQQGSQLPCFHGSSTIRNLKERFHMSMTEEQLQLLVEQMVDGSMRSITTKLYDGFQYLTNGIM
In series [11] the target is T2, Scaffold protein ILK (Homo sapiens) (UniProt Q13418).
T2 sequence (whole entry): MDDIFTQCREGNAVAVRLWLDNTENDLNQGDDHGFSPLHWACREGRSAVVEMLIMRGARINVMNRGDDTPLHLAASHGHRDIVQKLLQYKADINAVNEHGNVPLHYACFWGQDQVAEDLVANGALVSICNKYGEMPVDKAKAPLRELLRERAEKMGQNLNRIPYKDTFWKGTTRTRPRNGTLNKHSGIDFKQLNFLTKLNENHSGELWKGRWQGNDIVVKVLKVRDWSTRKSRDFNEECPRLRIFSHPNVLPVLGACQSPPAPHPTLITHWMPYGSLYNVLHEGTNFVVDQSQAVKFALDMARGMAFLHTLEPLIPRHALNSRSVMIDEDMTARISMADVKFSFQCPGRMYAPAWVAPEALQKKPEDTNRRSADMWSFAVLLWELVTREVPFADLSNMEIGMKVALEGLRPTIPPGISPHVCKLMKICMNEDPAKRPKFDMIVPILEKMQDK
The experiment in a line: Selectivity interaction (ActivX KiNativ screen (kinase selectivity in THP-1 cell lysates)) EUB0000639a ILK. The format is subcellular. The following applies: lysate, at 5 µM.

The target of series [12] is Serine/threonine-protein kinase MARK2 (Homo sapiens) (UniProt Q7KZI7). The experiment in a line: Selectivity interaction (KinomeScan (DiscoverX)) EUB0001049a MARK2. The following applies: at 1 µM.
Sequence of Serine/threonine-protein kinase MARK2 (Homo sapiens) (Q7KZI7 whole entry): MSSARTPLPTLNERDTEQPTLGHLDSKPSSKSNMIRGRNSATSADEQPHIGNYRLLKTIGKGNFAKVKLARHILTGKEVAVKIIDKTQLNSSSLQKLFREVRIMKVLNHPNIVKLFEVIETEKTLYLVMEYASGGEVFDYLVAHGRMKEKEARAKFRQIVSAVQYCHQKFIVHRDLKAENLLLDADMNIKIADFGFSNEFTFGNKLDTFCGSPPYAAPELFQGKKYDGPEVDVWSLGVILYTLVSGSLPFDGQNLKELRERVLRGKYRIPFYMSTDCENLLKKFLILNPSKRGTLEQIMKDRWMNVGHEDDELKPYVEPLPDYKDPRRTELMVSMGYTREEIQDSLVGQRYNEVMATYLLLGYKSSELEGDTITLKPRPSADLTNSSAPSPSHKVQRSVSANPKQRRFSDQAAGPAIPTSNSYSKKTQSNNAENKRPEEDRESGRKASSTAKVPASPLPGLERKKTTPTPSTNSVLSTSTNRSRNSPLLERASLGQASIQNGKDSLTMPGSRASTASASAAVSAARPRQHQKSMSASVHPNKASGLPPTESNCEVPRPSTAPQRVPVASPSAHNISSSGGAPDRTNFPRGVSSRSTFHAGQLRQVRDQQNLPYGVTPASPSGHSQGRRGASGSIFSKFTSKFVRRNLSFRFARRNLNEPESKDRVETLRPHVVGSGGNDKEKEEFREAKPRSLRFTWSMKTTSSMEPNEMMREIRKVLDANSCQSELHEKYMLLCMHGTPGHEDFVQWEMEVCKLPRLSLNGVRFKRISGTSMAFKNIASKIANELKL
Series [13] concerns the target T3, Hormonally up-regulated neu tumor-associated kinase (Homo sapiens) (UniProt P57058).
T3 sequence (whole entry): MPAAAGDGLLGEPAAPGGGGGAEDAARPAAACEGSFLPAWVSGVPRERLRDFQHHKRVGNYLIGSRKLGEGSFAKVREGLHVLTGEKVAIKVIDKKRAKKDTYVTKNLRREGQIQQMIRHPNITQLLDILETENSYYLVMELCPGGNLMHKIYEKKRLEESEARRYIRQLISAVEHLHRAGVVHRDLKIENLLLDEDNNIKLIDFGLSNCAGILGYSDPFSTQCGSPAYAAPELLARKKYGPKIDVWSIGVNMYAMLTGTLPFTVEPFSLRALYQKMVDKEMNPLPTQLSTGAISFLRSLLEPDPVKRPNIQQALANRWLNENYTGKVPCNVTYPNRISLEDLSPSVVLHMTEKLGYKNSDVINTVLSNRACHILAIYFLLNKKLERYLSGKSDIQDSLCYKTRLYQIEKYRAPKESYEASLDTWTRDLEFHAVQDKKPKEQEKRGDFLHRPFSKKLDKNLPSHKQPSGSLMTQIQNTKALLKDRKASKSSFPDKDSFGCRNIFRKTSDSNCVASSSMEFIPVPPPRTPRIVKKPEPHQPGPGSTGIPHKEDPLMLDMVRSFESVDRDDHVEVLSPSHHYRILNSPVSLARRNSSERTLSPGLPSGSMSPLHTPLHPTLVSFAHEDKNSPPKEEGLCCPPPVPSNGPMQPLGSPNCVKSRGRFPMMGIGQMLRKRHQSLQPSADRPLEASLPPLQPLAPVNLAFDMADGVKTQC
The experiment in a line: Selectivity interaction (KinomeScan (DiscoverX)) EUB0000092b HUNK. Conditions: at 10 µM.

The subject of series [14] is Epidermal growth factor receptor (Homo sapiens), P00533 [G719S]. Conditions: at 10 µM.

Each structure is given as a SMILES string.

Sequence of Epidermal growth factor receptor (Homo sapiens), P00533 [G719S] (P00533 whole entry G719S): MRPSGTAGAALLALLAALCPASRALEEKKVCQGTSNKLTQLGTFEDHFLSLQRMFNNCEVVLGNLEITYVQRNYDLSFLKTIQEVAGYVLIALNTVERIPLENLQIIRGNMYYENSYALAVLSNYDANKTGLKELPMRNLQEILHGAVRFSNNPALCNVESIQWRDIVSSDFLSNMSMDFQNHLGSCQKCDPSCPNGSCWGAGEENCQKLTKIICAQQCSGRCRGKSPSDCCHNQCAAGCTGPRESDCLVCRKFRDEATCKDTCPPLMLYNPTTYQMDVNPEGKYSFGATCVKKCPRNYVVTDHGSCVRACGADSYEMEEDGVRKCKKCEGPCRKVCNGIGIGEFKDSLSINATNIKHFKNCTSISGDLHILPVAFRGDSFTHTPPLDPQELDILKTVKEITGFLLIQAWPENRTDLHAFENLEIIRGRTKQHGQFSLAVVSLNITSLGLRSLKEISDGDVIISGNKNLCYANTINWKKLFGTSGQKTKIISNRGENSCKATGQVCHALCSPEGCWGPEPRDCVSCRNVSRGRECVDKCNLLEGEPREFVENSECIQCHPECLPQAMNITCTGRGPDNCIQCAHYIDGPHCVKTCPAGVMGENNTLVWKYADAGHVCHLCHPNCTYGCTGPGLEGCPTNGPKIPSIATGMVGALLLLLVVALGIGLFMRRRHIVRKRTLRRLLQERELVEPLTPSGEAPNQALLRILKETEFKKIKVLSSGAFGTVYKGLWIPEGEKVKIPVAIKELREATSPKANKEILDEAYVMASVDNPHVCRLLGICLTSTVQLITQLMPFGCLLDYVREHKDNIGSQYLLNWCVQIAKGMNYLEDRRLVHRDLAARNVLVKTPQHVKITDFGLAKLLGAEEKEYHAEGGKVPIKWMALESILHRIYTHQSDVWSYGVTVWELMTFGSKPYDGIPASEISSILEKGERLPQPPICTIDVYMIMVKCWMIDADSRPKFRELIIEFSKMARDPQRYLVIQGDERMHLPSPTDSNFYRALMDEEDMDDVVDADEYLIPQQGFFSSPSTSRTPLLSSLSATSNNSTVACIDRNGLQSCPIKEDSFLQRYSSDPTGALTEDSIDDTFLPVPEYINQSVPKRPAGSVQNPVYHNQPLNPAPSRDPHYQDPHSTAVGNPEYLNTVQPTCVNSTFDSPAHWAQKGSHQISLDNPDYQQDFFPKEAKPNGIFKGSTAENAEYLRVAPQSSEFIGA
Sequence of Phosphatidylinositol 4-kinase type 2-alpha (Homo sapiens) (Q9BTU6 whole entry): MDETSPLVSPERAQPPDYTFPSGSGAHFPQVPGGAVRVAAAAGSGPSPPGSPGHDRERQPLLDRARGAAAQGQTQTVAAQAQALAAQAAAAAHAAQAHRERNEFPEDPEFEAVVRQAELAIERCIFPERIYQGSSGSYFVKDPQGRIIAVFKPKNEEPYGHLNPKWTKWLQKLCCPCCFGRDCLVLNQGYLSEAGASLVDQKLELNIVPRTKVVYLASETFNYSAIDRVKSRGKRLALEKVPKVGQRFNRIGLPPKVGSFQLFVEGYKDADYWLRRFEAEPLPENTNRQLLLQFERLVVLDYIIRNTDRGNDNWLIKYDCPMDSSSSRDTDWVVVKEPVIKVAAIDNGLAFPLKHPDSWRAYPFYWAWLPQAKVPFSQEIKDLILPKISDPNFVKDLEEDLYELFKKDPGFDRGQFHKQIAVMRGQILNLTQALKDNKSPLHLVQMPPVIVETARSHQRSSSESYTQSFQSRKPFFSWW

With `Cn1cc(-n2cnc3c(NCc4nc5cc(Cl)c(Cl)cc5[nH]4)nc(N4CCOCC4)nc32)cn1`, the % of inhibition in series [1] was found to be 1.38%.

Regarding `CN(C)C/C=C/C(=O)Nc1ccc(C(=O)N2CCCC(Nc3ncc(Cl)c(-c4c[nH]c5ccccc45)n3)C2)cc1` (centres undefined), in series [2], the % of control was determined as 81%.

`CNC(=O)Nc1ccc(-c2nc(N3CC4CCC(C3)O4)c3cnn(C4CCC5(CC4)OCCO5)c3n2)cc1` gave a % of control in series [3] of 100%.

In the case of `Cc1cc([C@@H](C)Nc2ccccc2C(=O)O)c2nc(N3CCOCC3)cc(=O)n2c1` [AZD-6482], in series [4], the % of control came to 100%.

Take `O=C(NOC[C@H](O)CO)c1ccc(F)c(F)c1Nc1ccc(I)cc1F`: the % of control in [5] worked out at 91%; in [6] it was 88%.

In turn, `CC(C)(O)[C@H](F)CN1Cc2cc(NC(=O)c3cnn4cccnc34)c(N3CCOCC3)cc2C1=O` had a dTM in [7] of 0.2 K.

As for `COc1cc(N(C)c2ccnc3ccc(C(F)(F)F)cc23)cc(OC)c1OC`, in [8], the % binding was determined as 82%.

For the molecule `CCn1c(-c2nc3cc(C(=O)N4CCCC(N)C4)ccc3n2C)cc2ccccc21` (centres undefined), the XC50 in [9] is more than 15.8 µM.

With `CC[C@@H]1[C@H](F)C(=O)N[C@@H]1COc1nccc2cc(C(N)=O)c(OC)cc12` [ZIMLOVISERTIB], the % of inhibition in series [10] was 1.7%; in series [11], -24.1%.

As to `COc1cc(Nc2nc(C)cc(-c3cnn4nc(OC)ccc34)n2)cc(C(F)(F)F)c1`, in [12], the % of control turned out to be 77%.

For `CCC(=O)N1CCN(c2ccc(-n3c(=O)ccc4cnc5ccc(-c6cnc7ccccc7c6)cc5c43)cc2C(F)(F)F)CC1`, in [13], the % of control turned out to be 91%.

In turn, `COCC(=O)NC/C=C/c1ccc2ncnc(Nc3ccc(Oc4ccc(C)nc4)c(C)c3)c2c1` [CP-724714] came in with a % of control in series [14] of 0%.
